Measured values published in US4452991A, “Flavan derivatives useful for impairing RNA virus replication in a cell” (priority 1979, dated 1984).

test system: virus; assay: plaque reduction (PR) test, antiviral activity in monolayer cell culture; assay type: cell-based; settings: compound in nutrient agarose overlay, 50% effective dose vs control, read-out: PR (ED50 /μM)
Procedure: (§1) Activity may be detected by the plaque inhibition (PI) test and measured by the plaque reduction (PR) test. Both assays involve the formation of a monolayer cell culture in a petri dish followed by infection with a virus suspension, and then overlaying the culture with nutrient agarose in the form of a gel. This gel ensures that there is no spread of virus throughout the culture and thus areas of localised cell destruction of plaques are formed.
Detectable activity is measured with the plaque reduction assay. A range of concentrations of compound of known molarity are incorporated in the nutrient agarose overlay. Plaque suppression is proportional to compound concentration. Plaque numbers are expressed as percentages of a control, and a dose responsecurve may be drawn. From this curve 50% of the effective dose (ED50) may be estimated.

Row | SMILES | EC50 [µM]
1 | C[C@@H]1Cc2ccccc2O[C@H]1c1ccccc1 (relative stereo) [Example 1, trans-3-methylflavan] | 0.125
2 | C[C@@H]1Cc2cc(Cl)ccc2O[C@H]1c1ccc(Cl)cc1 (relative stereo) [Example 2, trans-4',6-dichloro-3-methylflavan] | 0.135
3 | C[C@H]1Cc2ccccc2O[C@H]1c1ccccc1 (relative stereo) [Example 3, cis-3-methylflavan] | 1.1
4 | c1ccc2c(c1)C[C@H]1Cc3ccccc3[C@H]1O2 (relative stereo) [Example 5, cis-4b,10,10a,11-tetrahydrobenz(b)indeno(2,1-e)pyran] | 0.38
5 | c1ccc2c(c1)C[C@@H]1CCc3ccccc3[C@@H]1O2 (relative stereo) [Example 6, cis-5,6,6a,12a-tetrahydro-7H-benzo(c)xanthene] | 0.03
6 | Clc1cc(Cl)c2c(c1)C[C@@H]1CCc3ccccc3[C@@H]1O2 (relative stereo) [Example 7, cis-9,11-dichloro-5,6,6a,12a-tetrahydro-7H-benzo(c)xanthene] | 6
7 | Clc1cccc2c1O[C@@H]1c3ccccc3C[C@@H]1C2 (relative stereo) [Example 8, cis-6-chloro-4b,10,10a,11-tetrahydrobenz(b)indeno(2,1-e)pyran] | 1.5
8 | Clc1cc(Cl)c2c(c1)C[C@H]1Cc3ccccc3[C@H]1O2 (relative stereo) [Example 9, Cis-6,8-dichloro-4b,10,10a,11-tetrahydrobenz(b)indeno(2,1-e)pyran] | 0.57

test system: virus; assay: Intranasal administration simulation in vitro (compound on lid of petri dish, inhibition of plaque formation); assay type: cell-based; settings: 1 μg compound spread on inside of petri dish lid, agarose-covered cells
Description: as §1
In the plaque inhibition test a filter paper disc which holds 0.01 ml when impregnated with a solution of compound is placed on top of the agarose gel. The compound may then diffuse throughout the gel so that its greatest concentration will be around the disc and its lowest concentration towards the periphery of the petri dish. The efficacy of the compound may be detected by observing the zone inhibition of plaque formation.
Petri dishes were prepared, as for the plaque inhibition test and the confluent sheet of cells was covered with a layer of agarose gel. The compound, trans-3-methylflavan (1 μg) was dissolved in ethanol, and applied to the lids of the petri dishes. When the ethanol had evaporated, leaving the compound spread over the inside of the lids, these were replaced on the petri dishes.

Row | SMILES | inhibition of plaque formation
9 | C[C@@H]1Cc2ccccc2O[C@H]1c1ccccc1 (relative stereo) [Example 1, trans-3-methylflavan] | total inhibition of plaque formation
